In patent US8143282B2, “Heterocyclic compounds” (S*BIO Pte Ltd., priority 2005, dated 2012):

Legend:
Colo205 cells = test: Cell-based proliferation assay for GI50 (CyQUANT), Colo205; settings: Homo sapiens, COLO 205, 96 h treatment, read-out: Cellular or Growth Inhibition Activity in Colo205 cells, GI50
How it was run: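 Cells were seeded at 1000 (PC3), 5000 (Colo205), 6000 (HCT116) or 4000 (HEP3B) per well and left 24 h at 37° C. Compound treatment lasted 96 h. Growth was read by CyQUANT, and GI50 (50% growth inhibition) came from dose-response curves.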

acetylated histone H3 = test: Histone H3 acetylation assay (immuno-blotting) in Colo205 cells; assay type: cell-based, Human; settings: 10 μM, 24 h, western-blot
Experimental: A hallmark of histone deacetylase (HDAC) inhibition is the increase in the acetylation level of histones. Histone acetylation, including H3, H4 and H2A can be detected by immuno-blotting (western-blot). Colo205 cells, approximately 5×10^5 cells, were seeded in the previously described medium, cultivated for 24 h and subsequently treated with HDAC inhibitory agents and a positive control at a final concentration of 10 μM. After 24 h, cells were harvested and lysed according to the instruction from Sigma Mammalian Cell Lysis Kit. The protein concentration was quantified using BCA method (Sigma Pte Ltd). The protein lysate was separated using 4-12% bis-tris SDS-PAGE gel (Invitrogen Pte Ltd) and was transferred onto PVDF membrane (BioRad Pte Ltd). The membrane was probed using primary antibody specific for acetylated histone H3 (Upstate Pte Ltd). The detection antibody, goat anti rabbit antibody conjugated with HRP was used according to the manufacturing instruction (Pierce Pte Ltd). After removing the detection antibody from the membrane, an enhanced chemiluminescent substrate for detection of HRP (Pierce Pte Ltd) was added onto the membrane. After removing the substrate, the membrane was exposed to an X-ray film (Kodak) for 1 sec-20 mins. The X-ray film was developed using the X-ray film processor. The density of each band observed on the developed film could be qualitatively analyzed using UVP Bioimaging software (UVP, Inc, Upland, Calif.). The values were then normalized against the density of actin in the corresponding samples to obtain the expression of the protein.

[1] = In vivo pharmacokinetic (PK) studies; settings: mouse, plasma, po; mice, hydrochloric acid salt form (2HCl), 50 mg/kg
Experimental: Compound was dissolved in appropriate solution (saline or DMA and Cremaphor in saline) at 1 mg/ml for intravenous (IV) administration, or in 0.5% methyl cellulose, 0.1% Tween 80 in water at 5 mg/ml for oral administration. Mice were randomized according to body weight, grouped three per time point. Mice were administered single IV dose (10 mg/kg) via tail vein, or single oral dose (50 mg/kg) via gavage. At pre-defined time points (predose, 5 or 10, 30 min, 1, 2, 4, 8, and 24 h), one group of mice was sacrificed by overdose CO2 and blood samples were collected by cardiac puncture. The blood samples were centrifuged immediately for 10 min at 3000 rpm to separate plasma, and plasma was kept frozen at −80° C. until analysis by LC/MS/MS. Before sample analysis, the method was developed for LC/MS/MS assay. The method was validated for signal-response of the calibration standards, auto-sampler stability for ˜15 hours intra-day and inter-day calibration curve using eight calibration standards excluding the blank plasma. QC samples at three different concentrations in triplicates were prepared to determine the accuracy and precision. The extracted QC samples were compared to unextracted samples to determine the extraction efficiency of the analyte. LLOQ was determined by using triplicate samples of 1 ng/mL and 2 ng/mL to obtain accuracy and precision at the low end. Samples were analysed using the validated method. Data was analyzed by the non-compartmental model using WinNolin 4.0 software (Pharsight, Mountain View, Calif., USA). The mean values for the plasma compound concentration-time profiles were used in mouse PK study.
The PK parameter AUC0-last providing the information on the overall exposure of the drug in vivo is one of the key PK/PD parameters that helps in predicting the efficacy of an anti-cancer compound. The higher the AUC value, the better will be the in vivo efficacy of the compound at similar in vitro potency.

GI50 (Colo205 cells): 150 nM | AUC(0-t) [1]: 1050 ng·h/mL
SMILES: CCCc1nc2cc(/C=C/C(=O)NO)ccc2n1CCNCCC(C)(C)C [Compound 130, 3-{1-[2-(3,3-Dimethyl-butylamino)-ethyl]-2-propyl-1H-benzoimidazol-5-yl}-N-hydroxy-acrylamide]
Histone Acetylation activities (Histone-3) (acetylated histone H3): Active
